# Measured values taken from publication PMC3511023, “Peptides presenting the binding site of human CD4 for the HIV-1 envelope glycoprotein gp120” (Beilstein Journal of Organic Chemistry, 2012).
# “Also recorded” adds a separate entry of the source. Bridges are numbered along the chain shown (N, C = ends). Where no end group is shown, it is not given here. [ ]: non-standard residue; d: D form.
# System: recombinant gp120 from HIV-1 strain IIIB
# Test: Direct ELISA: binding of gp120 to His-tagged peptides on Ni-chelate plates
# Settings: peptide coated at 4 µM on Ni-chelate plates; gp120(IIIB) 0.25 µg/mL, 2 h; absorbance at 492 nm, blank-corrected; Ar relative to CD4-M1 = 1; at least twice, each in duplicate
# Experimental: Antibody buffer: Phosphate buffer pH 7.2 containing 1% BSA and 0.1% Tween 20. The wells of 96-well Ni-Chelate plates from Thermo Scientific were coated overnight at 4 °C with peptide solution (100 µL, 4 µM in coupling buffer). After unspecific binding had been blocked with a blocking buffer (1 h at room temperature, gentle agitation), the plates were washed twice. Plates were then incubated for 2 h with 100 µL/well gp120(IIIB) from ImmunoDiagnostics at 0.25 µg/mL (Figure 3, left), or in serial dilutions starting at 2 µg/mL (Figure 3, right) in sample buffer, and washed four times. Following incubation with 100 µL/well sheep-anti-HIV-1-gp120 (D7324) from Aalto Bio Reagents (1:5000 in antibody buffer) for 1 h at room temperature, plates were washed four times with washing buffer, incubated for 1 h at room temperature with 100 µL/well rabbit-anti-sheep-IgG peroxidase conjugate from Dianova (diluted 1:5000 with antibody buffer), and washed four times with washing buffer. Plates were developed with 100 µL/well substrate solution (1 mg/mL OPD in 0.03% H2O2/H2O) in the dark (approx. 20 min), and the reaction was stopped by addition of 2 M sulfuric acid (50 µL/well). Absorbances (A) were read at 492 nm by using a multichannel photometer (Infinite F200 from Tecan).
# Relative Affinities (Ar) were calculated according to the following formula:
# Ar = (Apeptide – Ablank) / (A1– Ablank)
row,Substance,binding to gp120(IIIB) (relative affinity Ar)
1,"CD4-M6: CD4 residues 34–48, cyclic, F43A",largely abrogated
2,"CD4-M5: CD4 residues 34–48, cyclic through a disulfide between added cysteines (His6-CIKILGNQGSFLTKGPC; disulfide 1-17 (inferred))",strongly enhanced
3,"CD4-M3: CD4 residues 22–64, cyclic, F43A, R58A, R59A, S23C, D63C",largely abrogated; also recorded: complete loss of binding
4,"CD4-M4: His6-tagged linear peptide presenting the CDR2-like loop of CD4, residues 34–48 (His6-IKILGNQGSFLTKGP)",only the longer peptide CD4-M1 is recognized by gp120
5,CD4-M1: His6-tagged linear peptide presenting CD4 residues 22–64,is recognized by gp120
6,"CD4-M2: His6-tagged cyclic (disulfide) peptide, CD4 residues 22–64, S23C, D63C",strongly enhanced
7,"CD4-M7: CD4 residues 34–48, cyclic, F43-D-Phe (His6-CIKILGNQGS[dF]LTKGPC; disulfide 1-17 (inferred))",did not bind to gp120

# System: gp120(MN)
# Test: not given
# Settings: CD4-M5 60 µM or sCD4 0.4 µg/mL pre-incubated 10 min with gp120(MN) 0.5 µg/mL; 2 h on X5-coated plate; absorbance at 492 nm; at least twice, each in duplicate
row,Substance,enhancement of binding of gp120(MN) to the CD4i antibody X5
1,"CD4-M5: CD4 residues 34–48, cyclic through a disulfide between added cysteines (His6-CIKILGNQGSFLTKGPC; disulfide 1-17 (inferred))",able to enhance binding of gp120 to the CD4i antibody mAb X5
